Experimental findings from PMC9379910, “Chimeric Ligands of Pili and Lectin A Inhibit Tolerance, Persistence, and Virulence Factors of Pseudomonas aeruginosa over a Wide Range of Phenotypes” (ACS Infectious Diseases, 2022) are described below.

Test [1] has as its target T1, LecA (Pseudomonas aeruginosa, UniProt Q05097). As to the kind of experiment: direct fluorescence polarization titration with LecA ([…]). The format is binding. On the technique in general: Polarisation of emitted light reports the rotation of a fluorescent probe.
Test [2] has as its target T1, LecA. As to the kind of experiment: competitive fluorescence polarization (displacement of βGal-aryl-Dansyl from […] LecA); also motility-enabled binding assay.
The target of test [3] is T1, LecA. Kind of test: competitive fluorescence polarization (displacement of βGal-aryl-Dansyl from […] LecA). Format: binding.

T1 sequence (Q05097 2-122): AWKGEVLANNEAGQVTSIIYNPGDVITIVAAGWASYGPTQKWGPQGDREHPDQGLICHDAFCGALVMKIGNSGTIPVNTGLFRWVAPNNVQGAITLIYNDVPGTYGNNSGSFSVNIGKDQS

By Kd is commonly meant the constant that tells how readily two partners part at equilibrium. `CN(C)c1cccc2c(S(=O)(=O)Nc3ccc(O[C@@H]4O[C@H](CO)[C@H](O)[C@H](O)[C@H]4O)cc3)cccc12` [βGal-aryl-Dansyl] showed a Kd in test [1] of approximately 10.7 µM.

The IC50 is the concentration that gives 50% inhibition. Read a high IC50 as weaker potency in that assay. With `CCCCCCCC(C)CC(C)CCO[C@@H]1O[C@H](CO)[C@@H](O[C@H]2O[C@H](CO)[C@@H](O)[C@H](O)[C@H]2O)[C@H](O)[C@H]1O` (stereo partly drawn) [1a, 3,5-diMeDβM], in test [2], the IC50 stood at 15 µM.

Turning to `CCCCCCCC(C)CC(C)CCO[C@@H]1O[C@H](CO)[C@@H](O[C@@H]2O[C@H](CO)[C@@H](O)[C@H](O)[C@H]2O)[C@H](O)[C@H]1O` (stereo partly drawn) [1b, 3,5-diMeDβC], the IC50 in test [3] is 13 µM.
